Patent US20240206465A1, “ACTIVE POLYMERIC FILMS AND POLYMERIC COMPOSITIONS” (Yissum Research Development Company of the Hebrew …, priority 2021, published 2024)
Square brackets hold non-standard residues; d marks the D form. Ends that are not written are not given here. Phe(4-F) = N[C@@H](Cc1ccc(F)cc1)C(=O)O; Dopa = N[C@@H](Cc1ccc(O)c(O)c1)C(=O)O

Columns and labels:
[1] = Thermogravimetric analysis (thermal stability); type: physicochemical; conditions: at 160° C.; contained the absorbed water; FIG. 4A
Experimental: Thermogravimetric analysis (TGA). TGA measurements were performed using the TGA Q5000 system (TA instruments, USA) at a heating rate of 10° C./min under nitrogen atmosphere, starting from room temperature to 800° C. The results were analyzed using Universal Analysis 200 version 4.5 A build 4.5.0.5 software.

T4 phage = conditions: peptide assemblies deposited on the glass surface; cited from earlier work
canine coronavirus = conditions: peptide assemblies deposited on the glass surface; cited from earlier work

[Dopa]-[Phe(4-F)]-[Phe(4-F)]-OMe
weight loss of the peptide (TGA) [1]: < 3 wt % | antiviral activity against T4 phage (T4 phage): acted against | antiviral activity against canine coronavirus (canine coronavirus): acted against
